Four compounds from patent US4996211A, “Substituted dibenzocycloheptenimines” (Merck Sharp & Dohme Ltd., priority 1987, dated 1991) can be followed below.

The structures appear in SMILES notation. Where a name gives a salt, the structure may show the parent alone. Bounds are passed on as bounds.

The assay relates to tonic seizures induced by N-methyl-DL-aspartic acid (NMDLA). Description: Antagonism of NMDLA-induced tonic seizures in mice. Format: in vivo, mouse (male Swiss-Webster). To be noted: Mus musculus, iv; i.v. 15 min before s.c. NMDLA (500 mg/kg); groups of 8 mice, observed 30 min; probit analysis. Here is the method: The compounds useful in this invention bind with a high affinity and in a reversible and saturable manner to membranes from rat brain cortex. In addition these compounds potently and selectively block responses to NMDA in a brain slice from rat cortex, and antagonise NMDA-induced seizures in the mouse.
Compounds of the invention were examined for their ability to antagonise tonic seizures induced by N-methyl-DL-aspartic acid (NMDLA). Groups of 8 male Swiss-Webster mice (25-30 g) were injected intravenously with the test compound at various doses, 15 min before s.c. administration of NMDLA (500 mg/kg). […] ED50 values for the antagonism of the NMDLA induced tonic seizures were determined using probit analysis.
Consider `Cc1ccc2c(c1)C1(C)NC(C2)c2ccccc21` (stereo not shown) [Example 2, 3.5-Dimethyl-10,11-dihYdro-5H-dibenzo[a,d]cyclohepten-5,10-imine], for which the ED50 was less than 10 mg/kg. Under `CC12NC(Cc3ccc(-c4ccccc4)cc31)c1ccccc12` (stereo not shown) [Example 6, 5-Methyl-3-phenyl-10,11-dihydro-5H-dibenzo-[a,d]cyclohepten-5,10-imine hydrochloride] stands less than 10 mg/kg; under `CC12NC(Cc3ccc(CO)cc31)c1ccccc12` (stereo not shown) [Example 12, 3-HYdroxymethyl-5-methyl-10,11-dihydro-5H-dibenzo-[a,d]cyclohepten-5,10-imine], less than 10 mg/kg; under `Cc1ccc2c(c1)C1(C)NC2Cc2ccccc21` (stereo not shown) [Example 1, 5,7-Dimethyl-10.11-dihydro-5H-dibenzo[a,d]cyclohepten-5,10-imine], less than 10 mg/kg.
